Consider 1 compound from PubChem BioAssay AID1259407 (Chemical Carcinogenesis Research Information System (CCRIS), 2018).

Active and inactive are the calls of the source. No rule for the calls is given here.

The data set concerns CCRIS mutagenicity, Ames/micronucleus/aberration tests. In words: CCRIS mutagenicity studies.

As to `CCCC/C=C/C=O`, the mutagenic call is, setting by setting: (Test System: AMES SALMONELLA TYPHIMURIUM, Strain/Indicator: TA100, Metabolic Activation: NONE, Method: PREINCUBATION) “inactive; negative”; (Test System: AMES SALMONELLA TYPHIMURIUM, Strain/Indicator: TA100, Metabolic Activation: NONE, Method: PREINCUBATION (THREEFOLD CELL DENSITY)) “active; positive”; (Test System: AMES SALMONELLA TYPHIMURIUM, Strain/Indicator: TA100, Metabolic Activation: RAT, LIVER, S-9, AROCLOR 1254, Method: PREINCUBATION) “inactive; negative”; (Test System: AMES SALMONELLA TYPHIMURIUM, Strain/Indicator: TA100, Metabolic Activation: RAT, LIVER, S-9, AROCLOR 1254, Method: PREINCUBATION (THREEFOLD CELL DENSITY)) “inactive; negative”; (Test System: CHINESE HAMSTER V-79, Strain/Indicator: V-79/6-THIOGUANINE, Metabolic Activation: NONE, Method: STANDARD PLATE) “active; positive”; (Test System: CHINESE HAMSTER V-79, Strain/Indicator: V-79/OUABAIN, Metabolic Activation: NONE, Method: STANDARD PLATE) “active; positive”.
